Where a name gives a salt, the structure may show the parent alone.

BACE1, sequence (P56817 46-457): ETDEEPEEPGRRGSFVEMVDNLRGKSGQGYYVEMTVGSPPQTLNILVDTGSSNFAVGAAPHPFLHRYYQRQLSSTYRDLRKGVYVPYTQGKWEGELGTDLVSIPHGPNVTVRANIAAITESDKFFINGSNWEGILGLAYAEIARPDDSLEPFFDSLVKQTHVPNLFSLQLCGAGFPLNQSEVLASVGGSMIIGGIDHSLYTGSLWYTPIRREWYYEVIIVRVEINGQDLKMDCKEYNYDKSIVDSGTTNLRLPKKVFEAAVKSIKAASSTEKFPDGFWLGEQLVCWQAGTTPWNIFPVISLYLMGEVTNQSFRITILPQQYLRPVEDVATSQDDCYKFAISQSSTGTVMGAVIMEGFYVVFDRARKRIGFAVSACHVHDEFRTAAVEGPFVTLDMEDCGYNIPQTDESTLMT

The first experiment addresses BACE1 (Homo sapiens (Human), UniProt P56817). The experiment in a line: BACE1 Cell-Free Assay (fluorescence polarization). The format is biochemical. The conditions noted are these: geometric mean of 2-4 determinations unless otherwise indicated (b: ≧5; c: single determination); read-out: BACE1 Cell-free Assay IC50. An excerpt: This assay measures the inhibition of the beta-secretase enzyme as it cleaves a non-native peptide.
A synthetic APP substrate that can be cleaved by beta-secretase having N-terminal biotin and made fluorescent by the covalent attachment of Oregon Green at the Cys residue is used to assay beta-secretase activity in the presence or absence of the inhibitory compounds. […] The BACE1 enzyme is affinity purified material from conditioned media of CHO-K1 cells that have been transfected with a soluble BACE construct (BACE1deltaTM96His). […] Plates are covered and incubated for 3 hours at 37° C. […] The activity of the beta-secretase enzyme is detected by changes in the fluorescence polarization that occur when the substrate is cleaved by the enzyme.
On the technique in general: Polarisation of emitted light reports the rotation of a fluorescent probe.
What is called IC50 is the concentration at which inhibition is half-maximal. For `C[C@H]1C[C@H]2CSC(N)=N[C@@]2(c2nc(NC(=O)c3cc(C4CC4)on3)cs2)CO1` [Example 31, N-{2-[(4aR,6S,8aR)-2-amino-6-methyl-4,4a,5,6-tetrahydropyrano[3,4-d][1,3]thiazin-8a(8H)-yl]-1,3-thiazol-4-yl}-5-cyclopropyl-1,2-oxazole-3-carboxamide], the half-inhibitory concentration (IC50) came to 3820 nM.
`C[C@H]1C[C@H]2CSC(N)=N[C@@]2(c2nc(NC(=O)c3cc(C(F)(F)F)on3)cs2)CO1` [Example 32, N-{2-[(4aR,6S,8aR)-2-amino-6-methyl-4,4a,5,6-tetrahydropyrano[3,4-d][1,3]thiazin-8a(8H)-yl]-1,3-thiazol-4-yl}-5-(trifluoromethyl)-1,2-oxazole-3-carboxamide, trifluoroacetate salt]: the half-maximal inhibitory concentration (IC50) was 1400 nM.
As for `C[C@H]1C[C@H]2CSC(N)=N[C@@]2(c2nc(NC(=O)c3cn(C4CCC4)cn3)cs2)CO1` [Example 33, N-{2-[(4aR,6S,8aR)-2-amino-6-methyl-4,4a,5,6-tetrahydropyrano[3,4-d][1,3]thiazin-8a(8H)-yl]-1,3-thiazol-4-yl}-1-cyclobutyl-1H-imidazole-4-carboxamide], the half-maximal inhibitory concentration (IC50) is 34100 nM.
Still for that read-out and setting: under `C[C@H]1C[C@H]2CSC(N)=N[C@@]2(c2nc(NC(=O)c3cc(C4CCC4)nn3C)cs2)CO1` [Example 34, N-{2-[(4aR,6S,8aR)-2-amino-6-methyl-4,4a,5,6-tetrahydropyrano[3,4-d][1,3]thiazin-8a(8H)-yl]-1,3-thiazol-4-yl}-3-cyclobutyl-1-methyl-1H-pyrazole-5-carboxamide] stands 1480 nM; under `COCc1cc(C(=O)Nc2csc([C@]34CO[C@@H](C)C[C@H]3CSC(N)=N4)n2)no1` [Example 35, N-{2-[(4aR,6S,8aR)-2-amino-6-methyl-4,4a,5,6-tetrahydropyrano[3,4-d][1,3]thiazin-8a(8H)-yl]-1,3-thiazol-4-yl}-5-(methoxymethyl)-1,2-oxazole-3-carboxamide], 5860 nM.
As for `C[C@H]1C[C@H]2CSC(N)=N[C@@]2(c2nc(NC(=O)c3ccc(=O)n(C)c3)cs2)CO1` [Example 36, N-{2-[(4aR,6S,8aR)-2-amino-6-methyl-4,4a,5,6-tetrahydropyrano[3,4-d][1,3]thiazin-8a(8H)-yl]-1,3-thiazol-4-yl}-1-methyl-6-oxo-1,6-dihydropyridine-3-carboxamide], the half-maximal inhibitory concentration (IC50) amounted to 1410 nM.
For `Cc1nc(C(=O)Nc2csc([C@]34CO[C@@H](C)C[C@H]3CSC(N)=N4)n2)c(C(F)(F)F)o1` [Example 38, N-{2-[(4aR,6S,8aR)-2-amino-6-methyl-4,4a,5,6-tetrahydropyrano[3,4-d][1,3]thiazin-8a(8H)-yl]-1,3-thiazol-4-yl}-2-methyl-5-(trifluoromethyl)-1,3-oxazole-4-carboxamide, trifluoroacetate salt], the concentration for half-maximal inhibition (IC50) came to 145 nM.
Take `Cc1cc(C(=O)Nc2csc([C@]34CO[C@@H](C)C[C@H]3CSC(N)=N4)n2)n(C)n1` [Example 41, N-{2-[(4aR,6S,8aR)-2-amino-6-methyl-4,4a,5,6-tetrahydropyrano[3,4-d][1,3]thiazin-8a(8H)-yl]-1,3-thiazol-4-yl}-1,3-dimethyl-1H-pyrazole-5-carboxamide, trifluoroacetate salt]: the IC50 was determined as 364 nM.
In the case of `CCc1nc(C(=O)Nc2csc([C@]34CO[C@@H](C)C[C@H]3CSC(N)=N4)n2)co1` [Example 42, N-{2-[(4aR,6S,8aR)-2-amino-6-methyl-4,4a,5,6-tetrahydropyrano[3,4-d][1,3]thiazin-8a(8H)-yl]-1,3-thiazol-4-yl}-2-ethyl-1,3-oxazole-4-carboxamide, trifluoroacetate salt], the IC50 was 341 nM.
For the compound `C[C@H]1C[C@H]2CSC(N)=N[C@@]2(c2nc(NC(=O)c3ncn(C)n3)cs2)CO1` [Example 43, N-{2-[(4aR,6S,8aR)-2-amino-6-methyl-4,4a,5,6-tetrahydropyrano[3,4-d][1,3]thiazin-8a(8H)-yl]-1,3-thiazol-4-yl}-1-methyl-1H-1,2,4-triazole-3-carboxamide, trifluoroacetate salt], the IC50 is 435 nM.
Take `C[C@H]1C[C@H]2CSC(N)=N[C@@]2(c2nc(NC(=O)c3ccc(OC(C)(F)F)cn3)cs2)CO1` [Example 44, N-{2-[(4aR,6S,8aR)-2-amino-6-methyl-4,4a,5,6-tetrahydropyrano[3,4-d][1,3]thiazin-8a(8H)-yl]-1,3-thiazol-4-yl}-5-(1,1-difluoroethoxy)pyridine-2-carboxamide]: the half-maximal inhibitory concentration (IC50) is 185 nM.
Turning to `COc1cnc(C(=O)Nc2csc([C@]34CO[C@@H](C)C[C@H]3CSC(N)=N4)n2)c(C)n1` [Example 46, N-{2-[(4aR,6S,8aR)-2-amino-6-methyl-4,4a,5,6-tetrahydropyrano[3,4-d][1,3]thiazin-8a(8H)-yl]-1,3-thiazol-4-yl}-5-methoxy-3-methylpyrazine-2-carboxamide], the half-inhibitory concentration (IC50) is 320 nM.
Turning to `COc1cnc(C(=O)Nc2csc([C@]34CO[C@@H](C)C[C@H]3CSC(N)=N4)n2)c(C)c1` [Example 47, N-{2-[(4aR,6S,8aR)-2-amino-6-methyl-4,4a,5,6-tetrahydropyrano[3,4-d][1,3]thiazin-8a(8H)-yl]-1,3-thiazol-4-yl}-5-methoxy-3-methylpyridine-2-carboxamide], the IC50 was 101 nM.
Regarding `C[C@H]1C[C@H]2CSC(N)=N[C@@]2(c2nc(NC(=O)c3ccc(OC(F)F)nc3)cs2)CO1` [Example 48, N-{2-[(4aR,6S,8aR)-2-amino-6-methyl-4,4a,5,6-tetrahydropyrano[3,4-d][1,3]thiazin-8a(8H)-yl]-1,3-thiazol-4-yl}-6-(difluoromethoxy)pyridine-3-carboxamide], the IC50 is 232 nM.
In the case of `Cc1nc(C(=O)Nc2csc([C@]34CO[C@@H](C)C[C@H]3CSC(N)=N4)n2)co1` [Example 49, N-{2-[(4aR,6S,8aR)-2-amino-6-methyl-4,4a,5,6-tetrahydropyrano[3,4-d][1,3]thiazin-8a(8H)-yl]-1,3-thiazol-4-yl}-2-methyl-1,3-oxazole-4-carboxamide], the IC50 came to 103 nM.
For the compound `C[C@H]1C[C@H]2CSC(N)=N[C@@]2(c2nc(NC(=O)c3coc(C(F)(F)F)n3)cs2)CO1` [Example 50, N-{2-[(4aR,6S,8aR)-2-amino-6-methyl-4,4a,5,6-tetrahydropyrano[3,4-d][1,3]thiazin-8a(8H)-yl]-1,3-thiazol-4-yl}-2-(trifluoromethyl)-1,3-oxazole-4-carboxamide], the concentration for half-maximal inhibition (IC50) worked out at 189 nM.
`Cc1noc(C(=O)Nc2csc([C@]34CO[C@@H](C)C[C@H]3CSC(N)=N4)n2)n1` [Example 51, N-{2-[(4aR,6S,8aR)-2-amino-6-methyl-4,4a,5,6-tetrahydropyrano[3,4-d][1,3]thiazin-8a(8H)-yl]-1,3-thiazol-4-yl}-3-methyl-1,2,4-oxadiazole-5-carboxamide]: the IC50 stood at 98 nM.
As for `Cc1nc(C(=O)Nc2csc([C@]34CO[C@@H](C)C[C@H]3CSC(N)=N4)n2)no1` [Example 52, N-{2-[(4aR,6S,8aR)-2-amino-6-methyl-4,4a,5,6-tetrahydropyrano[3,4-d][1,3]thiazin-8a(8H)-yl]-1,3-thiazol-4-yl}-5-methyl-1,2,4-oxadiazole-3-carboxamide], the IC50 worked out at 91 nM.
Regarding `Cc1nc(C(=O)Nc2csc([C@]34CO[C@@H](C)C[C@H]3CSC(N)=N4)n2)c(C)o1` [Example 53, N-{2-[(4aR,6S,8aR)-2-amino-6-methyl-4,4a,5,6-tetrahydropyrano[3,4-d][1,3]thiazin-8a(8H)-yl]-1,3-thiazol-4-yl}-2,5-dimethyl-1,3-oxazole-4-carboxamide], the IC50 came to 65 nM.
Consider `C[C@H]1C[C@H]2CSC(N)=N[C@@]2(c2nc(NC(=O)c3cnc(OCC4CC4)cn3)cs2)CO1` [Example 54, N-{2-[(4aR,6S,8aR)-2-amino-6-methyl-4,4a,5,6-tetrahydropyrano[3,4-d][1,3]thiazin-8a(8H)-yl]-1,3-thiazol-4-yl}-5-(cyclopropylmethoxy)pyrazine-2-carboxamide], for which the IC50 was determined as 161 nM.
Turning to `C[C@H]1C[C@H]2CSC(N)=N[C@@]2(c2nc(NC(=O)c3cnc(OC4CC4)cn3)cs2)CO1` [Example 55, N-{2-[(4aR,6S,8aR)-2-amino-6-methyl-4,4a,5,6-tetrahydropyrano[3,4-d][1,3]thiazin-8a(8H)-yl]-1,3-thiazol-4-yl}-5-(cyclopropyloxy)pyrazine-2-carboxamide], the IC50 was determined as 519 nM.

Still in this experiment, the particulars now being: read-out: BACE1 Cell-free Assay IC50.
On to `C[C@H]1C[C@H]2CSC(N)=N[C@@]2(c2nc(NC(=O)c3ccc(OCC(F)F)cn3)cs2)CO1` [Example 37, N-{2-[(4aR,6S,8aR)-2-amino-6-methyl-4,4a,5,6-tetrahydropyrano[3,4-d][1,3]thiazin-8a(8H)-yl]-1,3-thiazol-4-yl}-5-(2,2-difluoroethoxy)pyridine-2-carboxamide, formate salt], for which the IC50 came out at 485 nM.
On the same count and under the same terms, under `CCc1cc(C(=O)Nc2csc([C@]34CO[C@@H](C)C[C@H]3CSC(N)=N4)n2)n(C)n1` [Example 39, N-{2-[(4aR,6S,8aR)-2-amino-6-methyl-4,4a,5,6-tetrahydropyrano[3,4-d][1,3]thiazin-8a(8H)-yl]-1,3-thiazol-4-yl}-3-ethyl-1-methyl-1H-pyrazole-5-carboxamide, trifluoroacetate salt] stands 369 nM; under `C[C@H]1C[C@H]2CSC(N)=N[C@@]2(c2nc(NC(=O)c3cnn(C)n3)cs2)CO1` [Example 40, N-{2-[(4aR,6S,8aR)-2-amino-6-methyl-4,4a,5,6-tetrahydropyrano[3,4-d][1,3]thiazin-8a(8H)-yl]-1,3-thiazol-4-yl}-2-methyl-2H-1,2,3-triazole-4-carboxamide, trifluoroacetate salt], 134 nM.

Source of the values: US9315520B2, “2-amino-6-methyl-4,4a,5,6-tetrahydropyrano[3,4-d][1,3]thiazin-8a(8H)-yl-1,3-thiazol-4-yl amides” (Pfizer Inc., priority 2014, dated 2016).
